Source: PMC6858373 (Scientific Reports, 2019)
Read-outs that look alike come from different tables or passages of the source.

Columns and labels:
[1] = target: T1, FGF14:Nav1.6 C-tail complex (Homo sapiens, UniProt Q92915+Q9UQD0); assay: Split-luciferase complementation assay (LCA) in Clone V double stable HEK293 cells; assay type: cell-based; details: for IC50: estimated, 8-point dose response 0.25-30 µM, n = 4 per concentration, library compounds, read-out: IC50
T1 construct: polymerase chain reaction (PCR) amplification of the FGF14 open reading frame (nt 1–855); C-terminal fragment of Nav1.6 (amino acids 1763–1976) fused with CD4ΔC-tail (amino acids 1–395); expressed in transfected cells

[2] = target: full-length P. pyralis luciferase (Photinus pyralis, UniProt P08659, K549A/L550V/N119G/N50D/S548I); assay type: cell-based
[3] = system: Clone V cells
[4] = 30 µM, 384-well, average of primary screening (n = 2), vs on-plate 0.3% DMSO
[5] = CC_NCI screening, biological replicate Set 1, normalized to on-plate 0.3% DMSO controls
[6] = CC_NCI screening, biological replicate Set 1, normalized to on-plate 0.3% DMSO controls (n=16 per plate)
[7] = average of Set 1 and Set 2, normalized to 0.3% DMSO controls
[8] = CC_NCI screening, normalized to on-plate 0.3% DMSO controls
[9] = CC_NCI screening, biological replicate Set 2, normalized to on-plate 0.3% DMSO controls
[10] = CC_NCI screening, biological replicate Set 2, normalized to on-plate 0.3% DMSO controls (n=16 per plate)
[11] = CC_NCI screening, LCA luminescence, biological replicate Set 1, normalized to on-plate 0.3% DMSO controls (n=16 per plate)
[12] = CC_NCI screening, LCA luminescence, biological replicate Set 2, normalized to on-plate 0.3% DMSO controls (n=16 per plate)
[13] = CC_NCI screening, LCA, biological replicate Set 1, normalized to on-plate 0.3% DMSO controls
[14] = CC_NCI screening, LCA, biological replicate Set 2, normalized to on-plate 0.3% DMSO controls
[15] = CC_NCI screening, average of Set 1 and Set 2, normalized to 0.3% DMSO controls
[16] = CC_NCI screening, full-length luciferase counter-screen luminescence, normalized to on-plate 0.3% DMSO controls
[17] = CC_NCI screening, full-length luciferase counter-screen, normalized to on-plate 0.3% DMSO controls

Chain of full-length P. pyralis luciferase (P08659 whole entry N50D/N119G/S548I/K549A/L550V, looked up): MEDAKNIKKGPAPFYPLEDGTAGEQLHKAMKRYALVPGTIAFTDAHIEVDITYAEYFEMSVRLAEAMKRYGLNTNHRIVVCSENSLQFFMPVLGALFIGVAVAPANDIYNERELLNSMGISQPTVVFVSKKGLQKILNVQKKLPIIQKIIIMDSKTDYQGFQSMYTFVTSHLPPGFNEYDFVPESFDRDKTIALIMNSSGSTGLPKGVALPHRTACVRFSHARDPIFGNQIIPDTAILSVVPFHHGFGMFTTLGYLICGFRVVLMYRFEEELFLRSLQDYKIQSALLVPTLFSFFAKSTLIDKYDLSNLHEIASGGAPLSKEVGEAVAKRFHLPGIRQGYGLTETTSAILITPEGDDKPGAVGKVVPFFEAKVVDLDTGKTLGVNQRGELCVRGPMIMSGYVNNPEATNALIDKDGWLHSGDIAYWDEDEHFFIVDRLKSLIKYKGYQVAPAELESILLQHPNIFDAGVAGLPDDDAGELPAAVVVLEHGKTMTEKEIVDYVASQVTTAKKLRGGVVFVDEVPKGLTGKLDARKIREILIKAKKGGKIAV
T1 sequence (Q92915 1-252 isoform Q92915-2): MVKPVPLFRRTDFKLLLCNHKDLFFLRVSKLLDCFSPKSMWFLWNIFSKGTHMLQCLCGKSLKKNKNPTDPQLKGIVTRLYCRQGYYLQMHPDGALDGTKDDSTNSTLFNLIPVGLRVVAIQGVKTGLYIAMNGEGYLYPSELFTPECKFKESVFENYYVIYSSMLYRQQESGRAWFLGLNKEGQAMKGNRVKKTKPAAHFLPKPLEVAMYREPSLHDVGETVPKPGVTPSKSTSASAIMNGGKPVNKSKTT
T1 sequence (Q9UQD0 1763-1976 limits assumed): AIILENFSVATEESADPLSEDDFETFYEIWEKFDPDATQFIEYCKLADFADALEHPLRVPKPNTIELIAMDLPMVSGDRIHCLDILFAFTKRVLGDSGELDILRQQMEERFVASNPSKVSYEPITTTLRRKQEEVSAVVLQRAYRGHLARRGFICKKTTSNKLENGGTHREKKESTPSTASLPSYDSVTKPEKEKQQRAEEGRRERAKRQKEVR

SMILES	Split Luciferase Assay %Lum Avg [1, 7] [%]	Luciferase Assay % Lum (full-length luciferase counter-screen) [2, 8] [%]	Luciferase Assay Z-score (full-length luciferase counter-screen) [2, 8]	Toxicity Assay % Fluor (CTB cell viability fluorescence) [3] [%]	Toxicity Assay Z-score (CTB cell viability) [3]	Split Luciferase Assay % Lum Set 1 [1, 11] [%]	Split Luciferase Assay %Lum Set 2 [1, 12] [%]	Split Luciferase Assay Z-score Set 1 [1, 13]	Split Luciferase Assay Z-score Set 2 [1, 14]	Split Luciferase Assay %Lum Avg [1, 15] [%]	Toxicity Assay % Fluor ([3]; human, 16 h, 30 µM) [%]	Toxicity Assay Z-score ([3]; human, 16 h, 30 µM)	Luciferase Assay % Lum [2] [%]	Luciferase Assay Z-score [2]	other results
Cc1ccc([N+](=O)[O-])cc1S(=O)(=O)N(C)/N=C/c1cnc2ccc(Br)cn12 [PIK 75, reference compound]	38.11	87.68	-1.58	101.60	0.22										Z-score (LCA primary screening) [1, 4]: −5.01; Split Luciferase Assay Z-score Set 1 [1, 5]: -6.21; Split Luciferase Assay % Lum Set 1 [1, 6]: 23.16%; IMin (% Luminescence) ([1]; antagonists, Clone V cells, 384-well, normalized to DMSO): 38.11 % Luminescence; IC50 [1]: 1630 nM
COc1ccc2c(c1OC)N=C(NC(=O)c1cccnc1)N1CCN=C21 [PIK 90]	92.26	102.65	0.34	101.53	0.21										Split Luciferase Assay Z-score Set 1 [1, 5]: -0.15; Split Luciferase Assay % Lum Set 1 [1, 6]: 98.17%; Split Luciferase Assay Z-score Set 2 [1, 9]: -1.11; Split Luciferase Assay %Lum Set 2 [1, 10]: 86.35%
CO[C@@H]1[C@H](N(C)C(=O)c2ccccc2)C[C@H]2O[C@]1(C)n1c3ccccc3c3c4c(c5c6ccccc6n2c5c31)C(=O)NC4 [PKC412]						54.68	67.62	-3.66	-2.63	61.15	83.94	-2.25			Luciferase Assay % Lum [2, 16]: 89.50%; Luciferase Assay Z-score [2, 17]: -1.34
CCCS(=O)(=O)Nc1ccc(F)c(C(=O)c2c[nH]c3ncc(Cl)cc23)c1F [PLX4720, reference compound]											93.90	-0.85	79.36	-2.64	IMin (% Luminescence) [1]: 36.71 % Luminescence; Split Luciferase Assay % Lum Set 1 [1]: 30.77%; Split Luciferase Assay %Lum Avg [1]: 36.71%; Split Luciferase Assay %Lum Set 2 [1]: 42.65%; Split Luciferase Assay Z-score Set 1 [1]: -5.60; Split Luciferase Assay Z-score Set 2 [1]: -4.67; Z-score (LCA primary screening) [1]: −5.13; IC50 [1]: 2140 nM
Nc1ncnc2c1c(-c1cnc3[nH]ccc3c1)nn2C1CCCC1 [PP121, reference compound]	48.86	124.27	3.11	111.23	1.57										Z-score (LCA primary screening) [1, 4]: −4.14; Split Luciferase Assay Z-score Set 1 [1, 5]: -4.89; Split Luciferase Assay % Lum Set 1 [1, 6]: 39.46%; Split Luciferase Assay Z-score Set 2 [1, 9]: -3.40; Split Luciferase Assay %Lum Set 2 [1, 10]: 58.26%; Z-score, full-length luciferase assay ([2]; 30 µM, 384-well plates, vs on-plate 0.3% DMSO): 3.11
Cc1ccc(Nc2nccc(N(C)c3ccc4c(C)n(C)nc4c3)n2)cc1S(N)(=O)=O.Cl [Pazopanib hydrochloride]						13.37	28.09	-7.00	-5.85	20.73					Luciferase Assay % Lum [2, 16]: 59.40%; Luciferase Assay Z-score [2, 17]: -5.20; Toxicity Assay % Fluor [3]: 92.21%; Toxicity Assay Z-score [3]: -1.09
OC[C@H]1O[C@@H](n2cnc3c2NC=NC[C@H]3O)C[C@@H]1O [Pentostatin]								2.75	3.80		86.56	-1.88	97.96	-0.26	Split Luciferase Assay % Lum Set 1 [1]: 134.04%; Split Luciferase Assay %Lum Avg [1]: 140.36%; Split Luciferase Assay %Lum Set 2 [1]: 146.68%
O=C(CCBr)N1CCN(C(=O)CCBr)CC1 [Pipobroman]						125.34	121.72	2.05	1.77	123.53	98.07	-0.27	102.03	0.26	
c1cc(CN2CCCNCCNCCCNCC2)ccc1CN1CCCNCCNCCCNCC1 [Plerixafor]						112.30	111.31	0.99	0.92	111.81	92.88	-1.00	97.43	-0.33	
O=C(c1ccc(OCCN2CCCCC2)cc1)c1c(-c2ccc(O)cc2)sc2cc(O)ccc12 [Raloxifene]						56.86	52.02	-3.49	-3.90	54.44	90.90	-1.27			Luciferase Assay % Lum [2, 16]: 91.29%; Luciferase Assay Z-score [2, 17]: -1.12
CC[C@H](CO)Nc1nc(NCc2ccccc2)c2ncn(C(C)C)c2n1 [Roscovitine]													97.39	-0.33	Split Luciferase Assay % Lum Set 1 [1]: 32.94%; Split Luciferase Assay %Lum Avg [1]: 39.88%; Split Luciferase Assay %Lum Set 2 [1]: 46.81%; Split Luciferase Assay Z-score Set 1 [1]: -5.42; Split Luciferase Assay Z-score Set 2 [1]: -4.33; Toxicity Assay % Fluor ([3]; human): 99.28%; Toxicity Assay Z-score ([3]; human): -0.10
C[S+]([O-])c1ccc(-c2nc(-c3ccncc3)c(-c3ccc(F)cc3)[nH]2)cc1 (stereo not drawn) [SB 203580, reference compound]											95.56	-0.62	80.35	-2.52	EMax (% Luminescence) [1]: 152.42 % Luminescence; Split Luciferase Assay %Lum Avg [1]: 152.42%; Split Luciferase Assay %Lum Set 2 [1]: 166.45%; Split Luciferase Assay Z-score Set 1 [1]: 3.10; Split Luciferase Assay Z-score Set 2 [1]: 5.41; Z-score (LCA primary screening) [1]: 4.25; dose-dependent behavior in LCA [1]: mild inhibition at lower concentrations (0.5–2 µM) and stimulation at higher concentrations
Cn1cc(C2=C(c3ccc(Cl)cc3Cl)C(=O)NC2=O)c2ccccc21 [SB 216763]						88.38	106.11	-0.94	0.50	97.25	101.41	0.20			Luciferase Assay % Lum [2, 16]: 100.07%; Luciferase Assay Z-score [2, 17]: 0.01
O=C1NC(=O)c2c1c1c3ccccc3n3c1c1c2c2ccccc2n1C1CCC3O1 [SB 218078]	79.40	92.40	-0.97	109.07	1.27										Split Luciferase Assay Z-score Set 1 [1, 5]: -1.55; Split Luciferase Assay % Lum Set 1 [1, 6]: 80.77%; Split Luciferase Assay Z-score Set 2 [1, 9]: -1.79; Split Luciferase Assay %Lum Set 2 [1, 10]: 78.02%
NC(=O)c1ccc(-c2nc(-c3ccc4c(c3)OCO4)c(-c3ccccn3)[nH]2)cc1 [SB 431542]						112.30	114.43	0.99	1.17	113.37	90.72	-1.30			Luciferase Assay % Lum [2, 16]: 93.14%; Luciferase Assay Z-score [2, 17]: -0.88
NC(=O)c1ccc2[nH]ccc2c1 [SD 169]	121.47	109.31	1.19	104.03	0.56										Split Luciferase Assay Z-score Set 1 [1, 5]: 2.14; Split Luciferase Assay % Lum Set 1 [1, 6]: 126.43%; Split Luciferase Assay Z-score Set 2 [1, 9]: 1.34; Split Luciferase Assay %Lum Set 2 [1, 10]: 116.51%
Fc1ccc(Cl)cc1-c1nc(Nc2ccncc2)c2nccnc2n1 [SD 208]	95.16	88.62	-1.46	107.60	1.06										Split Luciferase Assay Z-score Set 2 [1, 9]: -3.73; Split Luciferase Assay %Lum Set 2 [1, 10]: 54.10%
